Experimental data: patent US20100029732A1, “Combinations of Beta-2-Adrenoceptor Agonistic Benzothiazolone” (ASTRAZENECA AB, priority 2007, published 2010)
Counter-ions that a name gives are not always drawn.

Key:
[1] = target: T1, Adrenergic β2 (Homo sapiens, UniProt P07550); assay: Adrenergic β2 mediated cAMP production in H292 cells (AlphaScreen); format: cell-based
T1 construct: Adherent H292 cells were removed from tissue culture flasks; endogenous in cells; host or cells: H292 cells
Protocol: Adrenergic β2 Mediated cAMP Production
H292 cells were grown in 225 cm2 flasks incubator at 37° C., 5% CO2 in RPMI medium containing, 10% (v/v) FBS (foetal bovine serum) and 2 mM L-glutamine.
Adherent H292 cells were removed from tissue culture flasks by treatment with Accutase™ cell detachment solution for 15 minutes. Flasks were incubated for 15 minutes in a humidified incubator at 37° C., 5% CO2. Detached cells were re-suspended in RPMI media (containing 10% (v/v) FBS and […] L-glutamine) at 0.05×10^6 cells per 1 mL. 5000 cells in 100 μL were added to each well of a tissue-culture-treated 96-well plate and the cells incubated overnight in a humidified incubator at 37° C., 5% CO2. The culture media was removed and cells were washed twice with 100 μL assay buffer and replaced with 50 μL assay buffer (HBSS solution containing 10 mM HEPES pH7.4 and 5 mM glucose). […]
The concentration of cAMP (cyclic adenosine monophosphate) in the cell lysate was determined using AlphaScreen™ methodology. […] The AlphaScreen™ signal was measured using an EnVision spectrophotometer (Perkin-Elmer Inc.) with the recommended manufacturer's settings. cAMP concentrations were determined by reference to a calibration curve determined in the same experiment using standard cAMP concentrations. […] Intrinsic Activity was expressed as a fraction relative to the maximum activity determined for formoterol in each experiment. […]

[2] = system: guinea pig trachea contracted with methacholine; assay: Bronchodilator activity in guinea pig isolated tracheal ring preparation: onset measurements; conditions: rings contracted with methacholine 1 μM, mean±s.e.mean, n=4
Protocol: Guinea pigs (300-500 g) were killed by cervical dislocation and the trachea was isolated. The trachea was cut into segments 2-3 cartilage rings in width and suspended in 10 ml organ baths in modified Krebs' solution (mM; NaCl, 90; NaHCO3, 45; KCl, 5; MgSO4.7H2O, 0.5; Na2HPO4.2H2O, 1; CaCl2, 2.25; glucose, 10; pH 7.4) gassed with 5% CO2, 95% O2 at 37° C.). The tracheal rings were attached to an isometric force transducer for the measurement of isometric tension. The tissues were washed and a force of 1 g was applied to each tissue. The rings were contracted with methacholine (1 μM). Once the contraction had reached a plateau, vehicle (0.01% DMSO in distilled H2O), compound A (3 nM), roflumilast (1 μM) or a combination of compound A (3 nM) and roflumilast (1 μM) was added and the tissue left until the response had reached a plateau. Data were collected using the Chart 4 software (ADInstruments, Charlgrove, UK). The time to 90% of the maximum effect of the bronchodilator (onset time) was measured and expressed in min (mean±s.e.mean).

[3] = system: LPS-induced intra-alveolar neutrophilia; assay: Intra-alveolar neutrophil migration after intratracheal LPS challenge in the CRL:CD rat; format: in vivo; conditions: Compound W 3 ng/kg intratracheal 30 min prior to LPS 10 μg/kg; BAL 4 hr; mean±s.e.mean
Protocol: LPS challenge in CRL:CD rats causes an influx of neutrophils into the lungs. Under recoverable gaseous anaesthesia (5% isoflourane in oxygen), rats were dosed via the intatracheal route with vehicle (0.05M phosphate, 0.1% Tween 80, 0.6% saline, pH 6), or compound 30 min before challenge with an intratracheal dose of 10 μg/kg LPS.
The rats (250-400 g) were euthanized 4 hr after LPS challenge with 1 mL pentobarbitone sodium. A tracheotomy was performed and a calinula inserted. The airway was then lavaged using 3 mL Isoton at room temperature. The Isoton (BeckmanCoulter, High Wycombe, UK) was left in the airway for 10 seconds before being removed. The bronchio-alveolar lavage (BAL) fluid containing inflammatory cells was placed into a 15 mL centrifuge tube and kept on ice. This process was repeated three times. An aliquot of BAL fluid was removed and the inflammatory cells were counted on Sysmex (Sysmex UK, Milton Keynes). Neutrophils were expressed in millions/animal (mean±s.e.mean).

[4] = system: methacholine-induced bronchoconstriction; assay: Lung function in anaesthetised guinea-pigs, methacholine challenge; format: in vivo, Dunkin-Hartley guinea pig; conditions: tiotropium bromide 0.03 μg/kg intratracheal 2 hours prior; after 5 μg/kg i.v. methacholine
Protocol: Male Dunkin-Hartley guinea pigs (300-600 g) were weighed and dosed with vehicle (0.05M phosphate, 0.1% Tween 80, 0.6% saline, pH 6) or compound via the intratracheal route under recoverable gaseous anaesthesia (5% halothane in oxygen). Animals were dosed with compound or vehicle two hours prior to the administration of histamine or methacholine.
Guinea pigs were anaesthetised with pentobarbitone (1 mL/kg of 60 mg/mL solution i.p.) approximately 30 minutes prior to the first bronchoconstrictor administration. The trachea was cannulated and the animal ventilated using a constant volume respiratory pump (Harvard Rodent Ventilator model 683) at a rate of 60 breath/min and a tidal volume of 5 ml/lkg. […]
The animals were transferred to a Flexivent System (SCIREQ, Montreal, Canada) in order to measure airway resistance. […] Respiratory resistance was measured using the Flexivent “snapshot” facility (1 second duration, 1 Hz frequency). […] After each administration of bronchoconstrictor the peak resistance value was recorded. […] Percentage bronchoprotection produced by a compound was calculated at each dose of brochoconstrictor as follows:
Where % change Rveh is the mean of the maximum percentage change in airway resistance in the vehicle treated group. The results reported were measured after 5 μg/kg histamine or methacholine and were expressed as percentage bronchoprotection (mean±s.e.mean).

T1 sequence (P07550 whole entry): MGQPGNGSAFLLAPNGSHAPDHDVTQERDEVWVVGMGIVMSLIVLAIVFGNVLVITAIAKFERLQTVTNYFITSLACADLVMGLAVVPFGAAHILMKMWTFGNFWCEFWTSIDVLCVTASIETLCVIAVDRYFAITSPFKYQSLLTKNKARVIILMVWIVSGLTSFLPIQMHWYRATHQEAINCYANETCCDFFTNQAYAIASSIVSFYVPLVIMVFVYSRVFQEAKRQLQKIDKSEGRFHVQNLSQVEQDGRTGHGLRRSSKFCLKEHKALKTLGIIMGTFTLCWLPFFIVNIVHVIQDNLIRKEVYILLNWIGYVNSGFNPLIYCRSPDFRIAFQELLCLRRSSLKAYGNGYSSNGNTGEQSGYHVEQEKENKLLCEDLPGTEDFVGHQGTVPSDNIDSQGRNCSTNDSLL

With CCN(CC)CCN(CCNCCc1ccc(O)c2[nH]c(=O)sc12)C(=O)CCOCCc1cccc2ccccc12 [Compound A, N-[2-(Diethylamino)ethyl]-N-(2-{[2-(4-hydroxy-2-oxo-2,3-dihydro-1,3-benzothiazol-7-yl)ethyl]amino}ethyl)-3-[2-(1-naphthyl)ethoxy]propanamide dihydrobromide] the “β2 Int Act” value ([1]; Intrinsic Activity as fraction relative to the maximum activity of formoterol) was 0.8 and the “onset time (time to 90% of the maximum effect of the bronchodilator)” value ([2]; compound A 3 nM) was 16 ± 3.0 min.
With CNC(=O)c1cc(Cl)c(OC(C)(C)C(=O)O)cc1OC[C@@H](O)CN1CCC2(CC1)Cc1cc(Cl)ccc1O2 [Compound W, 2-{2-Chloro-5-{[(2S)-3-(5-chloro-1′H,3H-spiro[1-benzofuran-2,4′-piperidin]-1′-yl)-2-hydroxypropyl]oxy}-4-[(methylamino)carbonyl]phenoxy}-2-methylpropanoic acid] the BAL neutrophils [3] was 6.3±1.1 million/animal.
For CCN(CC)CCN(CCNCCc1ccc(O)c2[nH]c(=O)sc12)C(=O)CCOCCc1cccc2ccccc12 [N-[2-(Diethylamino)ethyl]-N-(2-{[2-(4-hydroxy-2-oxo-2,3-dihydro-1,3-benzothiazol-7-yl)ethyl]amino}ethyl)-3-[2-(1-naphthyl)ethoxy]propanamide], the “selectivity of β2 adrenoceptor agonism” value ([1]; over adrenergic α1D, adrenergic β1 and dopamine D2 activities) was at least 10 fold.
O=C(Nc1c(Cl)cncc1Cl)c1ccc(OC(F)F)c(OCC2CC2)c1 [roflumilast, 3-(cyclopropylmethoxy)-N-(3,5-dichloro-4-pyridinyl)-4-(difluoromethoxy)benzamide, reference compound] was tested, and the “onset time (time to 90% of the maximum effect of the bronchodilator)” value ([2]; roflumilast 1 μM) was 26 ± 1.4 min.
C[N+]1(C)[C@@H]2C[C@@H](OC(=O)C(O)(c3cccs3)c3cccs3)C[C@H]1[C@@H]1O[C@@H]12 [tiotropium bromide, Tiotropium bromide] was tested, and the “inhibition of methacholine-induced bronchoconstriction” value [4] was 13%.
